Reference: paper PMC8035258 (ChemMedChem, 2021)
Like-named read-outs stand apart in the source and are kept apart here.

Legend:
[1] = test system: 22Rv1 prostate cancer cells; settings: read-out: 22Rv1 IC50, clinical agents; cited from earlier work
[2] = molecular target: Mitochondrial respiratory complex II (Mus musculus, UniProt Q8K2B3+Q9CQA3+Q9CXV1+Q9CZB0); experiment: Complex II inhibition assay; assay type: biochemical
CII [3] = settings: read-out: CII IC50, cited from earlier work
TNBC MDA-MB-468 cells = experiment: MTS cytotoxicity assay in MDA-MB-468 cells; assay type: cell-based
[4] = test system: low tumorigenic human endothelial kidney (HEK293) cells; experiment: MTS cytotoxicity assay in HEK293 cells; assay type: cell-based; settings: Homo sapiens, HEK293, 72 h, read-out: HEK293 IC50
TTK = settings: 100 μM, KinomeScan; cited from earlier work
[5] = test system: 22Rv1 prostate cancer cells; experiment: MTS cytotoxicity assay in 22Rv1 prostate cancer cells; assay type: cell-based; settings: 100 μM up to 72 hours
CII [6] = settings: read-out: CII IC50; rat heart mitochondria; cited from earlier work
IRAK1 = settings: 100 μM, KinomeScan; cited from earlier work
breast cancer = settings: 200–300 mg/day, nine patients, stable disease for 4–8 months; cited from earlier work

Chain of Mitochondrial respiratory complex II (Q8K2B3 43-664): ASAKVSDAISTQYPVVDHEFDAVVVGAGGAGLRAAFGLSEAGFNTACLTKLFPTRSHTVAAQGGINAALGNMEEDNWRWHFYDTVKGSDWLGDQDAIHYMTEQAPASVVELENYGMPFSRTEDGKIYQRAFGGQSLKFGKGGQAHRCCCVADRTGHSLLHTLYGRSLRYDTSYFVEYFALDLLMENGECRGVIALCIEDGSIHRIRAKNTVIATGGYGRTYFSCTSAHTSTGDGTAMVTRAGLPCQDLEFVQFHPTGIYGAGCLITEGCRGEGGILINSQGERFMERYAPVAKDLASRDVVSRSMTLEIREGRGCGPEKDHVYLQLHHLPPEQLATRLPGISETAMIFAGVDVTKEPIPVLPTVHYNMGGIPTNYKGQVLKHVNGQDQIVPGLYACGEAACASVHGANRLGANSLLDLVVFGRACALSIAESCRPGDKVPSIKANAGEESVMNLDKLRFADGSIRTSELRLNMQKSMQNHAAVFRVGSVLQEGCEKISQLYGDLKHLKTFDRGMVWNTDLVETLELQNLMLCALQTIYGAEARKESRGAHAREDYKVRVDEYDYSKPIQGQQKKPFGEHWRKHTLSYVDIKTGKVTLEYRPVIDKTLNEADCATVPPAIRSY
Chain of Mitochondrial respiratory complex II (Q9CQA3 31-282): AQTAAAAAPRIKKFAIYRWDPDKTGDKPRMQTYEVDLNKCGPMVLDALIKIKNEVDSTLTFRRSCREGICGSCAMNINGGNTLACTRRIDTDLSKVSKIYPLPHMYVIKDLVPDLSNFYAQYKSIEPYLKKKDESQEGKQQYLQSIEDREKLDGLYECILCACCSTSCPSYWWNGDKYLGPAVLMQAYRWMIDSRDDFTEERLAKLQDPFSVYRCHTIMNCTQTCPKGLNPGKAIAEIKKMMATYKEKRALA
Chain of Mitochondrial respiratory complex II (Q9CZB0 30-169): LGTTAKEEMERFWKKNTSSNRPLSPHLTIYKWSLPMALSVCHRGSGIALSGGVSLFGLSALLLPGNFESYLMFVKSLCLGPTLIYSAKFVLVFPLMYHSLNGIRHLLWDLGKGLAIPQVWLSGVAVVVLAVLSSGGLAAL
Chain of Mitochondrial respiratory complex II (Q9CXV1 57-159): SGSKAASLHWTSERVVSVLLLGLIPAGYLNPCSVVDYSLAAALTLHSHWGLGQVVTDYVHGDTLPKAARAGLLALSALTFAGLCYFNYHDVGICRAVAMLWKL

**Q.** Which IC50 [1] does the source give for CC(O)c1cc(C(=O)N[C@@H](C)Cn2ccc(-c3ccc(C#N)c(Cl)c3)n2)[nH]n1 (some centres unmarked) [darolutamide] here?
**A.** 46 ± 10 µM

**Q.** Which inhibition at 0.1 µM ([2]; read-out: % inhibition of CII at 0.1 μM) does the source give for COc1[nH]c(=O)c(C(=O)[C@@H](C)C[C@H](C)[C@@H](Cl)CCl)c(O)c1OC [Atpenin A5, atpenin A5] here?
**A.** 93%

**Q.** What about the IC50 (CII [3]; positive control) of the same compound?
**A.** 0.0033 µM

**Q.** And the IC50 (CII [3]; ubiquinone binding site (IIQ))?
**A.** 0.0036 to 0.01 µM

**Q.** For CNC(=O)c1ccc(N2C(=S)N(c3cnc(C#N)c(C(F)(F)F)c3)C(=O)C23CCC3)cc1F [apalutamide], which IC50 [1] is on record?
**A.** 77 ± 17 µM

**Q.** Which “effect to reduce cell viability of breast cancer cells” value (TNBC MDA-MB-468 cells; 100 μM up to 72 hours) does the source give for CC1=Nc2ccc(Cl)cc2S(=O)(=O)N1 [Diazoxide, 7-chloro-3-methyl-2H-1,2,4-benzothiadiazine 1,1-dioxide, reference compound] here?
**A.** no effect

**Q.** And the “SI (Selectivity Index)” value (TNBC MDA-MB-468 cells; MDA-MB-468 over HEK293 cells)?
**A.** 1.26

**Q.** What about the IC50 (TNBC MDA-MB-468 cells; read-out: MDA-MB-468 IC50, 72 hours, mean ±SD of n=3) of the same compound?
**A.** 434 ± 26.2 µM

**Q.** What about the IC50 [4] of the same compound?
**A.** 547 ± 34.1 µM

**Q.** And the kinase inhibition (TTK)?
**A.** 15%

**Q.** And the “effect to reduce cell viability of prostate cancer cells” value [5]?
**A.** no effect

**Q.** What about the IC50 [2] of the same compound?
**A.** 1236 ± 2.5 µM

**Q.** And the “% Inhibition CII (100 μM)” value ([2]; 100 μM, mouse liver mitochondria, mean ±SD of n = 4, listed as DZX)?
**A.** no CII inhibition activity

**Q.** What about the inhibition at 100 µM ([2]; read-out: % Inhibition CII (100 μM), 100 μM, mouse liver mitochondria, mean ±SD of n = 4) of the same compound?
**A.** 9%

**Q.** And the IC50 (CII [6])?
**A.** 32 µM

**Q.** And the kinase inhibition (IRAK1)?
**A.** 9%

**Q.** What about the response rate (breast cancer) of the same compound?
**A.** 33%
